Among the test systems are DLD-1 colon; M19-MEL melanoma; DMS 273 small cell lung; HOP-18 NSCLC; SNB-78 CNS; LXFL 529 NSCLC; RXF-631 renal; XF 498 CNS; MDA-N; P388/ADR leukemia; P388 leukemia.
Holding throughout (assay): NCI tumour cell line growth inhibition, 48 h

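Protocol summary: plate cells (96-well), add compound at 5 concentrations, incubate 48 h, interpolate endpoints linearly. Abbreviation: GI50, concentration required for 50% inhibition of growth. TGI is the concentration that stops growth completely.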

Drawing on PubChem BioAssay (NCI), this text covers TGI and GI50 for 17 molecules.

Turning to `CSc1nc2nn(Cc3ccccc3)cc2c(=O)[nH]1`, the TGI with DLD-1 colon, with M19-MEL melanoma, with DMS 273 small cell lung, in the test on HOP-18 NSCLC, with SNB-78 CNS and with LXFL 529 NSCLC was over 100 µM each time.
Turning to `Cc1[nH]c2ccccc2c1CC/C(=N\Nc1ccccc1)c1ccccc1`, the TGI in the test with RXF-631 renal, in the test with XF 498 CNS, in the test with DLD-1 colon, in the test on DMS 273 small cell lung and in the test on SNB-78 CNS was over 100 µM in each case.
In turn, `COc1cccc(-c2cc(=O)c3cc(N4CCOCC4)ccc3[nH]2)c1` registered a TGI in the test on MDA-N of 0.0278 µM.
The same measure, in the same setting: next, `O=C(c1ccccc1Cl)n1oc2ccccc2c1=O`: over 100 µM.
On to `CCOc1ccc(/C=C/c2cc(OC)c(OC)c(OC)c2)cc1`, for which the TGI in the test on RXF-631 renal is over 38 µM; in the test with XF 498 CNS, over 100 µM; in the test with DLD-1 colon it was over 100 µM; with M19-MEL melanoma, over 100 µM; in the test with HOP-18 NSCLC, over 100 µM; in the test with SNB-78 CNS, 0.85 µM. In the test with LXFL 529 NSCLC, this molecule registered a TGI of 15.1 µM.
On to `C[C@@H](NS(=O)(=O)c1ccc(NC(=O)c2ccccc2)cc1)C(=O)O`, for which the TGI with XF 498 CNS, with DLD-1 colon, in the test with M19-MEL melanoma, in the test on DMS 273 small cell lung, with HOP-18 NSCLC and in the test on LXFL 529 NSCLC was over 100 µM each time.
With `OCC[N+]12CCCN1CCC2`, the TGI in the test on DLD-1 colon, in the test with M19-MEL melanoma, in the test with DMS 273 small cell lung, in the test on HOP-18 NSCLC, in the test with SNB-78 CNS and in the test with LXFL 529 NSCLC was over 100 µM each time.
Regarding `CN(C)CCC(CCN(C)C)=NO`, the TGI in the test with RXF-631 renal, with DLD-1 colon, with M19-MEL melanoma, in the test on DMS 273 small cell lung, in the test with HOP-18 NSCLC and in the test on SNB-78 CNS was over 100 µM each time. In addition, in the test on LXFL 529 NSCLC, the TGI was over 100 µM.
Regarding `CCOC(=O)C(CCC(N)=O)(CCC(=O)OC)C(=O)OCC`, the TGI with XF 498 CNS, with DLD-1 colon, in the test with M19-MEL melanoma, with DMS 273 small cell lung, in the test on HOP-18 NSCLC and in the test with SNB-78 CNS was over 100 µM in each case. In the test on LXFL 529 NSCLC, this molecule had a TGI of over 100 µM.
Turning to `CCCCNS(=O)(=O)c1n[nH]c(=O)[nH]c1=O`, the TGI in the test with MDA-N was over 100 µM.
On to `COC(=O)c1ncc2c(=O)[nH]c3ccccc3c2c1C(=O)OC`, for which the TGI in the test on RXF-631 renal, in the test on XF 498 CNS, in the test with DLD-1 colon, in the test with M19-MEL melanoma, in the test on DMS 273 small cell lung and with HOP-18 NSCLC was over 100 µM in each case. Further, the TGI with SNB-78 CNS and in the test on LXFL 529 NSCLC was over 100 µM throughout.
On to `CC(=O)O[C@H]1CCN2C(=O)C=CC(OCc3ccccc3)C12` (some centres not stated), for which the TGI with XF 498 CNS, in the test with DLD-1 colon, in the test with M19-MEL melanoma, in the test with DMS 273 small cell lung, with HOP-18 NSCLC and in the test with SNB-78 CNS was over 100 µM in each case. The molecule also had a TGI with LXFL 529 NSCLC of over 100 µM.
With `O=C(/C=C/c1ccccc1O)c1ccc([N+](=O)[O-])cc1`, the TGI in the test on RXF-631 renal is 89.9 µM; in the test with XF 498 CNS, 32.7 µM; with DLD-1 colon it was 26.3 µM; in the test with M19-MEL melanoma, 36.5 µM; in the test with DMS 273 small cell lung it was 52.6 µM; in the test with HOP-18 NSCLC, over 100 µM. The results for the TGI in the test with SNB-78 CNS and in the test with LXFL 529 NSCLC were 89.1 µM and 26.7 µM, respectively.
With `C=CC(=O)NC(N)=NC#N`, the TGI was over 58 µM with P388/ADR leukemia; 313 µM with XF 498 CNS; over 43.5 µM in the test with P388 leukemia; 311 µM in the test on DLD-1 colon; 278 µM with M19-MEL melanoma; 283 µM with HOP-18 NSCLC. For the same molecule, the values for the TGI with SNB-78 CNS and in the test on LXFL 529 NSCLC were 399 µM and 250 µM, respectively. The GI50 in the test on XF 498 CNS is 157 µM.
Turning to `O=C1C(=C([O-])c2ccccc2)C(=O)c2ccccc21.O=C1C(=C([O-])c2ccccc2)C(=O)c2ccccc21.[Mn+2]`, the GI50 with DLD-1 colon is 62 µM; with M19-MEL melanoma, over 100 µM; with DMS 273 small cell lung, 30.5 µM; in the test with HOP-18 NSCLC, 35.4 µM. The TGI in the test on DLD-1 colon, in the test on M19-MEL melanoma, in the test with DMS 273 small cell lung and with HOP-18 NSCLC was over 100 µM in each case.
In the case of `COc1cc(/C=C2\CCC/C(=C\c3ccc(O)c(OC)c3)C2=O)ccc1O`, the TGI in the test on XF 498 CNS was found to be 16.8 µM; in the test on DLD-1 colon it was 3.38 µM; in the test on M19-MEL melanoma it was 3.9 µM; in the test with MDA-N, 12.5 µM; in the test with DMS 273 small cell lung it was 3.07 µM; with HOP-18 NSCLC, 9.21 µM. For the same molecule, the TGI was 8.03 µM in the test with SNB-78 CNS and 4.22 µM in the test with LXFL 529 NSCLC.
Consider `N#CCC(=O)N/N=C1/C(=O)N(c2cc(Cl)ccc2Cl)C(=O)C(=O)C1c1nc2ccccc2s1` (configuration not stated), for which the TGI with RXF-631 renal, in the test with DLD-1 colon, in the test on M19-MEL melanoma, with DMS 273 small cell lung, in the test with HOP-18 NSCLC and in the test on SNB-78 CNS was over 100 µM throughout. The TGI in the test on LXFL 529 NSCLC was over 100 µM.
